Measurements: PubChem BioAssay AID330 (DTP/NCI, 2004)
“And” between values parts separate entries of the source, which are not always exact repeats. Equal values may be shown once. Inconclusive results and toxic doses are left out. How the source made its calls: active means survival T/C of 150% or more; inactive means T/C below 125% in these data.

Test system: P388 leukemia ip, CD2F1 mice, survival T/C
Assay: NCI In Vivo Anticancer Drug Screen. Data for tumor model P388 Leukemia (intraperitoneal) in CD2F1 (CDF1) mice
Settings: endpoint: median survival time, higher = longer survival
How it was run: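 Mice carrying the transplanted tumor received test compound or vehicle. Survival was recorded in each group, and the value is the treated-group measurement divided by that of the vehicle-treated control group.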

[1] = dose: 50.0 mg/kg/injection, schedule: Q01DX009 (ip), vehicle: Klucel (hydroxypropylcellulose) (HPC)
[2] = dose: 100.0 mg/kg/injection, schedule: Q01DX009 (ip), vehicle: Klucel (hydroxypropylcellulose) (HPC)

Measured: T/C

CCCS(=O)(=O)N/N=C(\C)c1cccs1
inactive: [1] 95 % of control | [2] 87 % of control

CC12OC(c3ccccc3)C(C)(OC1c1ccccc1)O2 (stereo not drawn)
inactive: dose: 60.0 mg/kg/injection, schedule: Q01DX005 (ip), vehicle: Klucel (hydroxypropylcellulose) (HPC) 102 % of control | dose: 120.0 mg/kg/injection, schedule: Q01DX005 (ip), vehicle: Klucel (hydroxypropylcellulose) (HPC) 100 % of control | dose: 240.0 mg/kg/injection, schedule: Q01DX005 (ip), vehicle: Klucel (hydroxypropylcellulose) (HPC) 98 % of control

OCC1NCCC(O)C1OC1OC(CO)C(O)C(O)C1O (stereo not drawn)
inactive: dose: 6.88 mg/kg/injection, schedule: Q01DX005 (ip), vehicle: water 103 % of control | dose: 13.75 mg/kg/injection, schedule: Q01DX005 (ip), vehicle: water 100 % of control | dose: 27.5 mg/kg/injection, schedule: Q01DX005 (ip), vehicle: water 100 % of control | dose: 55.0 mg/kg/injection, schedule: Q01DX005 (ip), vehicle: water 99 % of control

C1=CC2C(c3cccc4ccccc34)O[C@H]2O1 (stereo partly drawn)
inactive: dose: 7.5 mg/kg/injection, schedule: Q01DX005 (ip), vehicle: Klucel (hydroxypropylcellulose) (HPC) 97 % of control | dose: 15.0 mg/kg/injection, schedule: Q01DX005 (ip), vehicle: Klucel (hydroxypropylcellulose) (HPC) 97 % of control | dose: 30.0 mg/kg/injection, schedule: Q01DX005 (ip), vehicle: Klucel (hydroxypropylcellulose) (HPC) 97 % of control

OCC1OC(n2c(Cl)nc3ccccc32)C(O)C1O (stereo not drawn)
inactive: dose: 60.0 mg/kg/injection, schedule: Q01DX005 (ip), vehicle: saline 100 % of control | dose: 120.0 mg/kg/injection, schedule: Q01DX005 (ip), vehicle: saline 103 % of control | dose: 240.0 mg/kg/injection, schedule: Q01DX005 (ip), vehicle: saline 98 % of control

CN1c2ccc(C3N(C(=O)C(F)(F)F)C=CN3C(=O)C(F)(F)F)cc2Sc2cc(C3N(C(=O)C(F)(F)F)C=CN3C(=O)C(F)(F)F)ccc21
inactive: dose: 60.0 mg/kg/injection, schedule: Q01DX005 (ip), vehicle: saline with Tween-80 91 % of control | dose: 120.0 mg/kg/injection, schedule: Q01DX005 (ip), vehicle: saline with Tween-80 89 % of control | dose: 240.0 mg/kg/injection, schedule: Q01DX005 (ip), vehicle: saline with Tween-80 91 % of control

CP12(OC(C(F)(F)F)(C(F)(F)F)c3ccccc31)OC(C(F)(F)F)(C(F)(F)F)c1ccccc12
inactive: dose: 100.0 mg/kg/injection, schedule: Q04DX002 (ip), vehicle: Klucel (hydroxypropylcellulose) (HPC) 100 % of control | dose: 200.0 mg/kg/injection, schedule: Q04DX002 (ip), vehicle: Klucel (hydroxypropylcellulose) (HPC) 101 % of control | dose: 400.0 mg/kg/injection, schedule: Q04DX002 (ip), vehicle: Klucel (hydroxypropylcellulose) (HPC) 96 % of control

COc1cc(NCC(C)(O)CN(CC(C)C)C(C)C)c2ncccc2c1 (stereo not drawn)
inactive: dose: 12.5 mg/kg/injection, schedule: Q01DX005 (ip), vehicle: saline 97 % of control | dose: 25.0 mg/kg/injection, schedule: Q01DX005 (ip), vehicle: saline 103 % of control | dose: 50.0 mg/kg/injection, schedule: Q01DX005 (ip), vehicle: saline 106 % of control and 109 % of control

COC1(OC)C2C=CC1C1CC/C=C\CCC12 (stereo not drawn)
inactive: dose: 50.0 mg/kg/injection, schedule: Q01DX009 (ip), vehicle: saline with Tween-80 106 % of control | dose: 100.0 mg/kg/injection, schedule: Q01DX009 (ip), vehicle: saline with Tween-80 100 % of control | dose: 200.0 mg/kg/injection, schedule: Q01DX009 (ip), vehicle: saline with Tween-80 103 % of control

COc1ccc(C2OC(=O)CN2C(=O)c2ccccc2)cc1 (stereo not drawn)
inactive: dose: 50.0 mg/kg/injection, schedule: Q01DX005 (ip), vehicle: saline with Tween-80 107 % of control | dose: 100.0 mg/kg/injection, schedule: Q01DX005 (ip), vehicle: saline with Tween-80 95 % of control | dose: 200.0 mg/kg/injection, schedule: Q01DX005 (ip), vehicle: saline with Tween-80 90 % of control

O=C1OCCOCCOCCOCCOCCOC(=O)C1c1ccccc1
inactive: [1] 102 % of control | [2] 101 % of control | dose: 200.0 mg/kg/injection, schedule: Q01DX009 (ip), vehicle: Klucel (hydroxypropylcellulose) (HPC) 100 % of control
